Results taken from patent publication US8445496B2, “Crystalline forms of 4-[(2,4-dichloro-5-methoxyphenyl)amino]-6-methoxy-7-[3-(4-methyl-1-piperazinyl)propoxy]-3-quinolinecarbonitrile and methods of preparing the same” (Wyeth LLC, priority 2005, dated 2013).
Values after ≈ are worked out from the molar mass of the structure shown. “Also recorded” adds a separate entry of the source.

Tests used:
[1] = Conversion of crystal form on treatment with water; type: physicochemical; conditions: for form conversion in heated water: water at 90° C. or 95° C.
Protocol: Forms II, III, IV and Form VI can all be transformed into Form I by treatment with water, e.g. by heating in water. The water may be at room temperature. The water may be heated to at least about 90° C., and as high as at least about 95° C.
Form V is the anhydrous form, producing substantially Pattern E in FIGS. 1 and 8 when scanned by XRD, and has the highest transition temperature of all the polymorphic forms, i.e., about 148° C. It is also readily converted to Form I by treatment with heated water. The water is heated to at least about 90° C., and more preferably is heated to at least about 95° C. […] This hydrated form is different from either Form I or V, as shown by the XRD scan in FIG. 4.
FIG. 3. This is a differential scanning calorimeter (DSC) plot and a theromogravimetric analysis (TGA) plot of Form V after suspension in water for two months and ten days at room temperature.

[2] = Solubility in water and formulation vehicles
[3] = Hygroscopicity by dynamic vapor sorption; type: physicochemical; conditions: 0% to 90% RH, monohydrate
Protocol: The hydroscopicity of the anhydrous Form V and the hydrated forms was determined using dyanamic vapor sorption, including the plot for Form I shown in FIG. 2. This was performed under the following conditions. RH was set at 0%, 30%, 52.5%, 75% and 90%, with the sample exposed for 3 hours at each RH for two full cycles.

[4] = Solid-state stability on exposure to light, humidity and heat (XRD and HPLC; water loss); type: physicochemical
physchem = conditions: Table 4, (batch size 95, 50, 120, 54, 18.5, 550 g)
[5] = Table 4, (batch size 95, 50, 120, 54, 18.5, 550 g), listed as Pattern D

COc1cc(Nc2c(C#N)cnc3cc(OCCCN4CCN(C)CC4)c(OC)cc23)c(Cl)cc1Cl [Form IV, 4-[(2,4-dichloro-5-methoxyphenyl)amino]-6-methoxy-7-[3-(4-methyl-1-piperazinyl)propoxy]-3-quinolinecarbonitrile]
form conversion in heated water ([1]; listed as D): Converts to “I” in 90 °C | solubility ([2]; 2% Tween80/0.5% MC 0.06% acetic acid, aqueous with cosolvent or surfactant or cyclodextrin, Solubility, Table 4, (batch size 95, 50, 120, 54, 18.5, 550 g)): 3500 µg/mL (≈ 6600 µM) | solubility ([2]; 2% Tween 80/03% MC, aqueous with cosolvent or surfactant or cyclodextrin, Solubility, Table 4, (batch size 95, 50, 120, 54, 18.5, 550 g)): 70 µg/mL (≈ 132 µM) | Solubility, 2% Tween80/0.5% MC 0.06% acetic acid [2, 5]: 2.68 (pH 5.2) mg/mL | Solubility, 2% Tween 80/03% MC [2, 5]: 0.06 (pH 7.8) mg/mL

CO.COc1cc(Nc2c(C#N)cnc3cc(OCCCN4CCN(C)CC4)c(OC)cc23)c(Cl)cc1Cl [Form VI, 4-[(2,4-dichloro-5-methoxyphenyl)amino]-6-methoxy-7-[3-(4-methyl-1-piperazinyl)propoxy]-3-quinolinecarbonitrile methanolate]
form conversion in heated water [1]: Converts to “I” in 95 °C

COc1cc(Nc2c(C#N)cnc3cc(OCCCN4CCN(C)CC4)c(OC)cc23)c(Cl)cc1Cl [4-[(2,4-dichloro-5-methoxyphenyl)amino]-6-methoxy-7-[3-(4-methyl-1-piperazinyl)propoxy]-3-quinolinecarbonitrile]
solubility enhancement with about 2% Tween80 ([2]; about 2% Tween80): about 100 fold | solubility ([2]; about 2% Tween80, aqueous with cosolvent or surfactant or cyclodextrin, solubility with addition of about 2% Tween80, about 2% Tween80 (detergent)): 100 to 400 µg/mL (≈ 189 to 754 µM) | solubility ([2]; aqueous with cosolvent or surfactant or cyclodextrin, solubility with addition of about 0.06% acetic acid (in-situ acetate salt vehicle), about 2% Tween80 plus about 0.06% acetic acid): 3000 to 4000 µg/mL | solubility ([2]; de-ionized water, pH 7.2, water, solubility in de-ionized water, partially ionized, resulting pH 7.2): 1.8 µg/mL (≈ 3.39 µM) | solubility enhancement with about 0.06% acetic acid ([2]; in-situ acetate salt vehicle): ~1000 fold | solubility ([2]; pH 8, aqueous buffer, intrinsic (neutral form) solubility, pH 8.0): ~0.06 µg/mL (≈ 0.113 µM) | solubility ([2]; stomach acid, simulated gastric fluid, solubility in stomach acid): > 200000 µg/mL

COc1cc(Nc2c(C#N)cnc3cc(OCCCN4CCN(C)CC4)c(OC)cc23)c(Cl)cc1Cl [Form II, 4-[(2,4-dichloro-5-methoxyphenyl)amino]-6-methoxy-7-[3-(4-methyl-1-piperazinyl)propoxy]-3-quinolinecarbonitrile]
form conversion in heated water ([1]; listed as B): Converts to “I” in 95 °C

COc1cc(Nc2c(C#N)cnc3cc(OCCCN4CCN(C)CC4)c(OC)cc23)c(Cl)cc1Cl [Form V, 4-[(2,4-dichloro-5-methoxyphenyl)amino]-6-methoxy-7-[3-(4-methyl-1-piperazinyl)propoxy]-3-quinolinecarbonitrile]
form change in water at room temperature ([1]; suspended in water at room temperature, 2 months (two months and ten days), DSC, TGA, XRD): converted into a hydrated Form II; also recorded: hydrated to a metastable hydrate crystal form | form conversion in heated water [1]: Converts to “I” in 95 °C

CC(C)O.COc1cc(Nc2c(C#N)cnc3cc(OCCCN4CCN(C)CC4)c(OC)cc23)c(Cl)cc1Cl [Form III, 4-[(2,4-dichloro-5-methoxyphenyl)amino]-6-methoxy-7-[3-(4-methyl-1-piperazinyl)propoxy]-3-quinolinecarbonitrile monoisopropyl alcoholate]
form conversion in heated water [1]: Converts to “I” in 95 °C

COc1cc(Nc2c(C#N)cnc3cc(OCCCN4CCN(C)CC4)c(OC)cc23)c(Cl)cc1Cl.O [Form I, 4-[(2,4-dichloro-5-methoxyphenyl)amino]-6-methoxy-7-[3-(4-methyl-1-piperazinyl)propoxy]-3-quinolinecarbonitrile monohydrate]
hygroscopicity [3]: not hygroscopic; also recorded: non-hydroscopic | Solubility, 2% Tween80/0.5% MC 0.06% acetic acid ([2]; Table 4, (batch size 95, 50, 120, 54, 18.5, 550 g), listed as Pattern A, monohydrate): 4.25 (pH 5.7) mg/mL | loss of water at 0% relative humidity ([4]; 0% relative humidity for 10 days): does not lose water | stability to humidity (XRD and HPLC) ([4]; 75% humidity at 40° C. for 3 months): substantially pure and physically unchanged | stability to heat (XRD and HPLC) ([4]; 90° C. for 2 weeks): substantially pure and physically unchanged | stability to light (XRD and HPLC) ([4]; 510 foot-candles (~5490 lux) light for two weeks): substantially pure and physically unchanged | loss of water on heating ([4]; heated to 90° C. for over 100 hours): does not lose water | solubility (physchem; aqueous with cosolvent or surfactant or cyclodextrin, 2% Tween80/0.5% MC 0.06% acetic acid): 4000 µg/mL | solubility (physchem; pH 7.2, water, Water): 1.8 µg/mL
